Data reported in patent publication EP4711355A1, “CRYSTAL FORM OF LIPOPROTEIN COMPOUND AND PREPARATION METHOD THEREFOR” (Jiangsu Hengrui Pharmaceuticals Co., Ltd., priority 2023, dated 2024).
Structures can show the parent of a compound that is named as a salt.

Tests used:
[1] = Long-term accelerated stability test (Test Example 3), sealed in aluminum foil bags; format: physicochemical; details: for physicochemical stability: 25°C/60%RH and 40°C/75%RH for 6 months
[2] = In vivo pharmacokinetic study in beagle dogs; details: male, dog, plasma, po, gavage, 10 mg/kg
Description: With beagle dogs as test animals, the drug concentration in the plasma of beagle dogs at different time points after oral administration of the compound of the present disclosure was determined by using LC/MS/MS. The pharmacokinetic behavior of the compound of the present disclosure in beagle dogs was studied to evaluate its pharmacokinetic characteristics.
Experimental animals: 2 healthy male beagle dogs aged 8 to 36 months per group
Drug preparation: A certain amount of drug was weighed and prepared into a 2 mg/mL colorless clear solution with normal saline.
Administration: Beagle dogs were fasted overnight and administered with the drug by gavage. The dosage of reference 1 and the compound of Example 6 was both 10 mg/kg.
Procedure: Beagle dogs were administered by gavage with the compound of the present disclosure. Approximately 0.6 mL of blood was collected by peripheral venipuncture at 0.25, 0.5, 1, 2, 4, 6, 8, and 24 h after administration. The blood was placed in a tube containing EDTA-K2 and centrifuged at 2000 rpm for 10 min at approximately 4°C to separate the plasma, which was then stored at -75°C.
Determination of the content of the test compound in beagle dog plasma at different blood collection time points: 33 µL of beagle dog plasma (30 µL plasma and 3 µL blank) collected at each time point after administration was added to 18 µL of 6% perchloric acid solution, vortexed for 30 s, and centrifuged at 3900 rpm at 4°C for 15 min. Then, 200 µL of alkaline (pH 10-11 as adjusted with ammonia water) acetonitrile solution containing internal standard dexamethasone was added to precipitate the protein. The mixture was vortexed for 30 s and centrifuged at 3900 rpm at 4°C for 15 min. The supernatant of the plasma sample was taken, diluted 3-fold with water, and 8 µL was taken for LC/MS/MS analysis.
After the blood drug concentration was determined by LC/MS/MS analysis, the pharmacokinetic parameters were calculated using WinNonlin 6.1 software and the non-compartmental model method. Table 1 Pharmacokinetic parameters of the compounds of the present disclosure in beagle dogs

[3] = DVS hygroscopicity test (dynamic moisture sorption); format: physicochemical; details: at 80% RH; listed as hydrochloride crystal form a
Description: DVS stands for dynamic moisture sorption: using the Surface Measurement Systems instrument, humidity started at 50% and the humidity range investigated was 0%-95% with a step of 10%. The judgment standard is that the mass change of each gradient dM/dT is ≤ 0.002%, TMAX is 360 min, and there are two cycles.

SMILES	Crystal form ([1]; 0 day)	Purity (%) ([1]; 0 day)	Crystal form ([1]; 25°C-60%RH, 1 month)	Purity (%) ([1]; 25°C-60%RH, 1 month)	Crystal form ([1]; 25°C-60%RH, 3 months)	Purity (%) ([1]; 25°C-60%RH, 3 months)	Crystal form ([1]; 25°C-60%RH, 6 months)	Purity (%) ([1]; 25°C-60%RH, 6 months)	Crystal form ([1]; 25°C-60%RH, 7 days)	Purity (%) ([1]; 25°C-60%RH, 7 days)	Crystal form ([1]; 25°C-60%RH, 14 days)	Purity (%) ([1]; 25°C-60%RH, 14 days)	physicochemical stability [1]	Crystal form ([1]; 40°C-75%RH, 1 month)	Purity (%) ([1]; 40°C-75%RH, 1 month)	Crystal form ([1]; 40°C-75%RH, 3 months)	Purity (%) ([1]; 40°C-75%RH, 3 months)	Crystal form ([1]; 40°C-75%RH, 6 months)	Purity (%) ([1]; 40°C-75%RH, 6 months)	Crystal form ([1]; 40°C-75%RH, 7 days)	other results
Cl.Cl.Cl.Cl.O=C(O)[C@@H](Cc1cccc(CN(CCOc2cccc(C[C@H](C(=O)O)[C@H]3CCNC3)c2)Cc2cccc(C[C@H](C(=O)O)[C@H]3CCNC3)c2)c1)[C@H]1CCNC1 [hydrochloride (1:4) amorphous form, (2S)-3-(3-{[(2-{3-[(2S)-2-carboxyl-2-[(3R)-pyrrolidin-3-yl]ethyl]phenoxy}ethyl)({3-[(2S)-2-carboxyl-2-[(3R)-pyrrolidin-3-yl]ethyl]phenyl}methyl)amino]methyl}phenyl)-2-[(3R)-pyrrolidin-3-yl]propionic acid tetrahydrochloride]	Amorphous form	99.8	Unchanged	99.8	Deliquescent	99.8	Deliquescent	99.8	Unchanged	99.8	Unchanged	99.8	slightly less stable	Deliquescent	99.8	Deliquescent	99.8	Deliquescent	99.8	Unchanged	Crystal form ([1]; 25°C-60%RH, 2 months): Deliquescent; Purity (%) ([1]; 25°C-60%RH, 2 months): 99.8%; Crystal form ([1]; 40°C-75%RH, 2 months): Deliquescent; Purity (%) ([1]; 40°C-75%RH, 2 months): 99.8%; Purity (%) ([1]; 40°C-75%RH, 7 days): 99.8%; Crystal form ([1]; 40°C-75%RH, 14 days): Unchanged; Purity (%) ([1]; 40°C-75%RH, 14 days): 99.8%
Cl.Cl.Cl.Cl.O=C(O)[C@@H](Cc1cccc(CN(CCOc2cccc(C[C@H](C(=O)O)[C@H]3CCNC3)c2)Cc2cccc(C[C@H](C(=O)O)[C@H]3CCNC3)c2)c1)[C@H]1CCNC1 [Compound A hydrochloride, (2S)-3-(3-{[(2-{3-[(2S)-2-carboxyl-2-[(3R)-pyrrolidin-3-yl]ethyl]phenoxy}ethyl)({3-[(2S)-2-carboxyl-2-[(3R)-pyrrolidin-3-yl]ethyl]phenyl}methyl)amino]methyl}phenyl)-2-[(3R)-pyrrolidin-3-yl]propionic acid tetrahydrochloride]	–	–	–	–	–	–	–	–	–	–	–	–	–	–	–	–	–	–	–	–	AUC ([2]; read-out: Area under curve AUC): 28600 ng·h/mL; half-life ([2]; read-out: Half life T1/2 (converted)): 18.3 h; Cmax ([2]; read-out: Maximum blood concentration Cmax): 2470 ng/mL
O=C(O)[C@@H](Cc1cccc(CN(CCOc2cccc(C[C@H](C(=O)O)[C@H]3CCNC3)c2)Cc2cccc(C[C@H](C(=O)O)[C@H]3CCNC3)c2)c1)[C@H]1CCNC1 [hydrochloride (1:1) crystal form a, (2S)-3-(3-{[(2-{3-[(2S)-2-carboxyl-2-[(3R)-pyrrolidin-3-yl]ethyl]phenoxy}ethyl)({3-[(2S)-2-carboxyl-2-[(3R)-pyrrolidin-3-yl]ethyl]phenyl}methyl)amino]methyl}phenyl)-2-[(3R)-pyrrolidin-3-yl]propionic acid]	Hydrochloride crystal form a	99.9	Unchanged	99.9	Deliquescent	99.7	Deliquescent	98.5	Unchanged	99.9	Unchanged	99.9	slightly less stable	Deliquescent	97.7	Deliquescent	95.2	Deliquescent	94.8	Unchanged	DVS hygroscopicity weight gain [3]: 30%; Purity (%) ([1]; 40°C-75%RH, 7 days): 99.8%; Crystal form ([1]; 40°C-75%RH, 14 days): Unchanged; Purity (%) ([1]; 40°C-75%RH, 14 days): 98.8%
